Data published in patent US12172969B2 (EVOFEM BIOSCIENCES, INC., priority 2018, dated 2024).

What was measured:
[1] = tested on: cDNA-expressed CYP1A2, CYP2A6, CYP2B6, CYP2C8, CYP2C9, CYP2C19, CYP2D6, CYP2E1, CYP3A4, and CYP3A5; assay: Metabolism by cDNA-expressed human CYP enzymes (all isoforms), parent remaining by LC-MS/MS; details: 1.0 μM and 10 μM, 120 minutes incubation, 37° C., compared to 0 min
Description: (§1) At two time points (0 and 120 min), the reaction was stopped by removing an aliquot and combining it with an equal volume of cold acetonitrile containing an internal standard (labetalol) and placement on ice. Samples were centrifuged to pellet the protein and the supernatant was frozen at −20° C. for subsequent analysis by LC-MS/MS.
(§2) Protein concentrations were constant for all isoforms within an experiment and standardized by the addition of control microsomes. Incubations were performed in duplicate. Incubations with vector control enzyme preparations and without enzyme source were included as negative controls.
All other positive controls were assayed at one concentration in duplicate in accordance with the methods described above. The percent of parent remaining at the end of the incubation was compared to 0 min based on the peak area ratio of the substrate and internal standard.
(§3) The fraction of parent compound remaining compared to 0 min was determined based on peak area ratio (analyte/internal standard).

cDNA-expressed CYP2C8 = molecular target: T1, cDNA-expressed CYP2C8 (Homo sapiens, UniProt P10632); assay: Metabolism by cDNA-expressed CYP2C8, parent remaining; details: 10 μM; for depletion by cDNA-expressed CYP2C8: 120 minutes
T1 sequence (P10632 1-490): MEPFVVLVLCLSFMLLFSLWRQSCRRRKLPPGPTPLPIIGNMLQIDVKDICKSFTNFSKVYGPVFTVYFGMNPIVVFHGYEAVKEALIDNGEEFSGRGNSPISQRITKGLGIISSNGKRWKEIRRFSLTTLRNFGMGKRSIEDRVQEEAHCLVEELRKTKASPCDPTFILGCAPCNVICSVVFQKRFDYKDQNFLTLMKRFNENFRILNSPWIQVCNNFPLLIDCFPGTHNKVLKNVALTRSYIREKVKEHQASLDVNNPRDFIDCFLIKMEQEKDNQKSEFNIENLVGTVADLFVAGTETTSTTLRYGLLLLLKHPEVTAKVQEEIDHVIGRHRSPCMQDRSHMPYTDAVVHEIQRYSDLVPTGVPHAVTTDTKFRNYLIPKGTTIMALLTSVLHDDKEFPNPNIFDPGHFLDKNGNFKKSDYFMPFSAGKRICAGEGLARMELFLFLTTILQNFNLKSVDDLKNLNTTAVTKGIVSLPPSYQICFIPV
Description: as §1, §2, §3

cDNA-expressed CYP2C9 = cDNA-expressed CYP2C9 (Homo sapiens, UniProt P11712); assay: Metabolism by cDNA-expressed CYP2C9, parent remaining; details: 10 μM; for depletion by cDNA-expressed CYP2C9: 120 minutes
Description: as §1, §2, §3

[2] = in vivo; cited from earlier work

cDNA-expressed CYP2C9, sequence (P11712 whole entry): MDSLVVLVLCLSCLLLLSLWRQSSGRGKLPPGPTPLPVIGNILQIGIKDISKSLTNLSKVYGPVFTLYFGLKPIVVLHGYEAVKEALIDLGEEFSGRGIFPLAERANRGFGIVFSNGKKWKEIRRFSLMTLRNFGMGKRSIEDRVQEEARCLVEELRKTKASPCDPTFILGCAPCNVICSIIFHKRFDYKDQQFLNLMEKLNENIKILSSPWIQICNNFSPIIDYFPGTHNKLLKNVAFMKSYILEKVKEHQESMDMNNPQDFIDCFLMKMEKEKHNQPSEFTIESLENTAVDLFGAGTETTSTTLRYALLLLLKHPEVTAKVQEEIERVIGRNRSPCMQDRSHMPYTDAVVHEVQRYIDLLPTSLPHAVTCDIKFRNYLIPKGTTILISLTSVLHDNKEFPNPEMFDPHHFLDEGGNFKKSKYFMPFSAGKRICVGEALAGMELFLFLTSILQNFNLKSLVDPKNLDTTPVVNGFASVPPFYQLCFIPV

## α,2-dimethyl-5-nitro-1H-imidazole-1-ethanol-d6 [secnidazole-d6]
[1]
  average percent of parent compound remaining for all isoforms and concentrations: less than 100%
cDNA-expressed CYP2C8
  depletion by cDNA-expressed CYP2C8: did not demonstrate any depletion
cDNA-expressed CYP2C9
  depletion by cDNA-expressed CYP2C9: did not demonstrate any depletion

## Cc1ncc([N+](=O)[O-])n1CC(C)O (stereo not drawn) [secnidazole, 1-(2-methyl-5-nitro-1H-imidazol-1-yl) propan-2-ol, reference compound]
cDNA-expressed CYP2C8; human, 2 h, pH 7.4
  percent of parent remaining: 82%
cDNA-expressed CYP2C9; human, 2 h, pH 7.4
  percent of parent remaining: 79%
[2]
  excreted intact in the urine: 50%

## α,2-dimethyl-5-nitro-1H-imidazole-1-ethanol-d3 [secnidazole-d3]
[1]
  average percent of parent compound remaining for all isoforms and concentrations: greater than 96%
cDNA-expressed CYP2C8
  depletion by cDNA-expressed CYP2C8: did not demonstrate any depletion
cDNA-expressed CYP2C9
  depletion by cDNA-expressed CYP2C9: did not demonstrate any depletion
